Results: a melting point compilation (Tetko et al.; mined from patent text by program, amines drawn as free bases though some values may be those of a salt)

SMILES | melting point
COCn1ccnc1C(O)(c1ccc(Cl)cc1)c1ccc(Cl)cc1 | 145 to 146 °C
CON=CNC(=O)c1ccc(Br)cc1C | 119 to 122 °C
CNC(=O)c1cnn(-c2ccccc2)c1Br | 157 to 159 °C
CCOC(=O)c1cn(Cc2ccccc2)c2cc(C(C)C)nn2c1=O | 135 to 140 °C
O=C1CCC(Nc2nccc(-n3ncc4ccccc43)n2)CC1 | 212 to 213 °C
CCCCc1ncc(/C=C(\Cc2cccs2)C(=O)O)n1Cc1ccc(CC(=O)O)cc1 | 169 to 171 °C
COc1ccc(Cn2c(=O)[nH]c3ccc(Cl)cc3c2=O)cc1 | 252 to 253 °C
CC(C)(C)OC(=O)N1[C@@H](CC2CCCCC2)[C@H](CC2SCCCS2)OC1(C)C | 104 to 106 °C
CC1(C)CC(=Cc2nc3cc(O)ccc3o2)CC(C)(C)C1 | 160 to 162 °C
O=C(OCc1ccccc1)N1CCN(CCN2C(=O)c3ccccc3C2=O)CC1 | 89.5 to 90.5 °C
O=S(Cc1ccccc1)c1nc2cnccc2[nH]1 (stereo unspecified) | 190 to 193 °C
N#Cc1ccc(C(=O)CC2C=COc3ccccc32)cc1 (stereo unspecified) | 111 °C
COc1ccc(-c2nc(CCl)nc3sc(C)c(C)c23)cc1OC | 117 to 118 °C
CCOC(=O)c1cnc2c(S)cccn2c1=O | 151 to 152 °C
COc1ccc2oc(C(=O)O)c(OC)c2c1 | 168 °C
CCC(CC)Oc1cc([N+](=O)[O-])ccc1N | 62 to 63 °C
c1ccc2c(c1)[nH]c1nc(N3CCCC3)nc(N3CCCC3)c12 | 209 to 211 °C
CC[C@]12CC[C@H]3[C@@H](CC(C)C4=CC(=O)CC[C@@H]43)[C@@H]1CCC2=O (stereo partly specified) | 141 to 149 °C
O=C(c1cc(-c2ccccc2)c(=O)n2c1-c1sccc1C2)N1CCOCC1 | 225 to 227 °C
CCN1CCN(c2cccc(Nc3nc4c(-c5ccc(P(C)(C)=O)cc5)cccn4n3)c2)C(=O)C1 | 205 to 207 °C
CCCCCCCCCCCCCCCCCC(CCCCCCCCCCCCCCCCC)=NO | 66 to 67 °C
O=C(O)[C@H](CC(=NO)c1ccc2oc3ccccc3c2c1)NC(=O)C(F)(F)F | 128 to 130 °C
CCCCCCCCCCCCOP(=O)(CC(=O)Nc1c(C(C)C)cccc1C(C)C)c1ccccc1 (stereo unspecified) | 66 to 68 °C
CCc1nc2c(N)nc3cc(-c4cccnc4)ccc3c2n1CC1CCN(C(=O)OC(C)(C)C)CC1 | 229 to 231 °C
O=C1CCC(N2Cc3c(OCc4ccc(CN5CCOCC5)cc4)cccc3C2=O)C(=O)N1 (stereo unspecified) | 206 to 208 °C
CNC(=O)N(O)Cc1ccc(OCc2ccccc2)cc1 | 150 to 153 °C

SMILES | melting point
CC(O)CCCOc1ccc2nc3[nH]c(=O)[nH]c3cc2c1 (stereo unspecified) | 301 to 303 °C
O=C1N(Cc2ccc(C(F)(F)F)o2)c2ccccc2C12COc1cc3c(cc12)OCO3 (stereo unspecified) | 103 to 105 °C
CSc1cc2n(c(=O)n1)C(C)N=C2 (stereo unspecified) | 221 to 222 °C
CCOC(=O)C(C)n1cc(-c2ccc(Oc3ccccc3)cc2)c2c(N)ncnc21 (stereo unspecified) | 139 to 140 °C
CCC(CC)c1nn(-c2ccc(C(F)(F)F)cn2)cc1CCCOc1c(C)cccc1CC(=O)O | 125 to 126 °C
C[C@@H]1CN(c2cc3c(c(N)c2F)c(=O)c(C(=O)O)cn3C2CC2)C[C@H](C)N1 | 253 to 254 °C
COC1OC2OC3(C)CCC4C(C)CCC(C1C)C24OO3 (stereo unspecified) | 73 to 74.5 °C
CCNc1ccc(N2CCOC2=O)cc1[N+](=O)[O-] | 140 °C
Cc1scnc1-c1ccc(-c2cc(C(F)(F)F)nn2-c2ccc(S(C)(=O)=O)c(F)c2)cc1 | 170 to 172 °C
COC(=O)[C@@](C)(CCC1=C(C)C(=O)C(C)=C(C)C1=O)OS(C)(=O)=O | 112 to 114 °C
COc1ccc(CSc2cccc(N)c2)cc1 | 85 to 86 °C
O=C(c1ccc(Cl)cc1)C(Cn1cncn1)n1cncn1 (stereo unspecified) | 204 °C
CC1CC(C)CN(C(=O)C2Cc3ccccc3N2)C1 (stereo unspecified) | 131 to 133 °C
CCn1c(C(C)NS(=O)(=O)c2ccc(Cl)c(Cl)c2)cnc1Sc1ccc(C)cc1 (stereo unspecified) | 173 to 174 °C
C#Cc1cnc2c(C)cc(OC(SC)C(=O)NC(C)(C#N)CF)cc2c1 (stereo unspecified) | 180 to 182 °C
CCCn1c(COCC)nc2c(N)nc3ccc(OCc4ccccc4)cc3c21 | 152 to 154 °C
Clc1ccc2[nH]c(Cc3ccccc3)c(C3=NCCN3)c2c1 | 299 to 300 °C
Cc1ccc(C=NNC(=O)c2ccc(O)cc2)s1 | 216 °C
COc1ccc2nc(CSc3cc(C)ccn3)[nH]c2c1 | 138 to 140 °C
Cc1occc1C(=O)Nc1ccc(Cl)c(C2OCCO2)c1 | 134 to 135 °C
COC(=O)c1cc(SC(F)(F)F)c(-c2ccc(Cl)cc2)[nH]1 | 133 to 137 °C
CCCCCCCC(=O)c1ccc(CCI)cc1 | 36.5 °C
Fc1cccc(CCc2nnc(-c3ccc4c(c3)CCO4)o2)c1 | 85 to 86 °C
CCCCNC(=S)N1CCc2cc(S(=O)(=O)N3CC(c4ccccc4)NC3=O)ccc21 (stereo unspecified) | 186 to 188 °C
COC(=O)C1=C(C(=O)OC)C(N)C2=C(c3cc4ccccc4s3)N=NC2=N1 (stereo unspecified) | 218 to 220 °C
